Tests used:
Verticillium = test: Jar test 2016: Verticillium microsclerotia colonies in treated soil, dry soil plating on NP-10; type: cell-based, Verticillium dahliae; conditions: 2016 test; microsclerotia colonies per gram of soil post-treatment; soil 20% water content; 4 replicates
Protocol: These investigations were performed under laboratory conditions in an initial jar test. We also investigated the pathogen control efficacy of LSS treatments, at 30 gal/acre (90 pounds/acre or 101 Kg/ha of calcium polysulfide) and at 90 gal/acre (276 pounds/acre or 310 Kg/ha of calcium polysulfide), and combined Metam/LSS treatments using Sectagon® brand metam at 20 gal/acre Metam (84 pounds/acre or 94 Kg/ha of metam sodium) with 40 gal/acre LSS (122 pounds/acre or 138 Kg/ha of calcium polysulfide); and at 30 gal/acre Metam (126 pounds/acre or […] of metam sodium) with 20 gal/acre LSS (60 pounds/acre or 67 kg/ha of calcium polysulfide). […] This may be due to lower water saturation in the 2016 tests compared to the saturation in 2015 tests, which was near 100%.
Each treatment listed in Table 1 was replicated 4 times. Verticillium levels in soil were assessed by dry incubation on semi selective media (NP-10) method. Soil collected from a Romaine lettuce field in Salinas, Calif. was used for the investigation. […]
Experimental Setup: Seven treatments were installed in 4 replicates each. […] The equivalent of gal/acre was calculated on the assumption that on acre of soil has an average weight of 3,625,895 lbs. […] Afterwards, soil was split between the two laboratories and were assessed according to the method described.
Verticillium levels in soil were assessed by dry incubation on semi selective media (NP-10). […]
The quantity of Verticillium in soil was assessed by dry soil plating on NP-10 semi-selective medium. […] After that, remaining soil was gently washed off the plates and the number of Verticillium microsclerotia colonies were counted on each plate under a microscope. The number of microsclerotia colonies is used as a standard method to quantify Verticillium in soil and was extrapolated for 1 g soil.
Results were analyzed in a one-way ANOVA (P=0.05) and a Fisher LSD Post-Hoc test. […]
Verticillium assessments were performed parallel in two separate laboratories. […] The quantity of Verticillium in soil was assessed by dry soil plating on NP-10 semi-selective medium. […]

[1] = tested on: artificially infested V. dahliae soil; test: Greenhouse eggplant bioassay (plant height) in treated, artificially infested V. dahliae soil; type: in vivo; conditions: preliminary; for eggplant height Jul. 27, 2017: soil treated Jun. 27, 2017, eggplant transplanted July 13, rates gal/acre on 12 inch soil depth, letters after value = statistical grouping, untreated 118; for eggplant height Aug. 4, 2017 / eggplant height Aug. 10, 2017 / eggplant height Aug. 17, 2017: soil treated Jun. 27, 2017, letters = statistical grouping; for eggplant height Aug. 4, 2017: untreated 124; for eggplant height Aug. 10, 2017: untreated 134
Protocol: In these tests, greenhouse and microplot trials were done to further define the LSS efficacy as stand-alone treatment as well as in combination with Sectagon®. A large number of soil samples were treated using the rates below, expressed as gallons equivalent per acre of (LSS), a 3.07 pounds Calcium Polysulfide per gallon Liquid Lime Sulfur Solution, and Sectagon®, a 4.25 pound per gallon sodium methyldithiocarbamate (metam) solution. Each treatment was performed on six samples to provide statistically valid data. As always, though the treatment is defined in terms of gallons per acre of two products, the testing is with a mixture.
To minimize sample variability that was apparent in certain previous tests, these tests were a greenhouse study, using artificially infested V. dahliae soil. A soil derived from a Romaine lettuce field in Salinas, Calif. (collected September 2015) was confirmed (January 2017) to be highly infested with V. dahliae. Romaine lettuce were grown in the V. dahliae infested soil until microsclerotia built up in the leaves. Infested leaves were harvested, dried, crumbled, and mixed with autoclaved sand. Samples of the mixture were tested for V. dahliae. The mixture was used for the greenhouse study and for the production of pathogen bags for the microplot study.
Artificially infested V. dahliae soil were treated according to the above list. The greenhouse/eggplant study utilize a sterile sand+10% potting mix soil. The inoculated soil was pre-irrigated to ca. 70% field capacity for 14 days, and was then soil placed in various containers, each of which was then treated with appropriate LSS/Metam mixture in a certain volume of water. The soil was thoroughly mixed/agitated, and left sealed for 24 hours to simulate a water seal or tarp. The container was then unsealed 24 hours after application and allowed to sit for 14 days and then mixed and apportioned into 4″ pots for growing eggplant as the bioassay.
To simulate a situation closer to field conditions, a field based microplot study was also established for a few of the above tests, using eggplant. The greenhouse/eggplant study utilized a sterile sand+10% potting mix soil; the inoculated soil was pre-irrigated to ca. 70% field capacity for 14 days; soil was placed in a bucket, treated with appropriate LSS/Metam mixture in correct volume of water, thoroughly mixed/agitated, and left sealed for 24 hours to simulate a water seal or tarp. The bucket was unsealed at 24 hours after application and allowed to sit for 14 days and then mixed and apportioned into 4″ pots for growing eggplant as the bioassay. Seven days after treatment, one soil sample per replicate was taken. V. dahliae control efficacy was assessed according to the methods below, but only on selected treatments due to time pressures. At 14 days after treatment, eggplants were grown in the remaining soil to assess treatment effects on vigor and growth. […] Microplots were located at the USDA Research Field at Spence Road, Salinas, Calif. Treatments were selected based on the results of the previous greenhouse study. Trial site was pre-irrigated for 7 days before placing the Verticillium, V. dahliae, sample bags in the various treatments. Sprinkler irrigation was used to establish 60-80% soil moisture. Four V. dahliae samples per replicate were artificially introduced at 4 and 8 inches depth. Treatments were applied with micro emitter and drip across the microplot. The treatment using a 2 hour drip irrigation period was anticipated to provide penetration to 12 inch depth. After treatment, microplots remained untarped. After 5-7 days V. dahliae samples were recovered.
All LSS and Sectagon® treatments were made, mixing the treatment well with the soil and covering to prevent outgassing on Jun. 27, 2017. On June 28 the lids were removed lids. […]

Row | SMILES | Verticillium quantity (ms/g) Lab A (Verticillium) [ms/g] | Verticillium quantity (ms/g) Lab B (Verticillium) [ms/g] | eggplant height Jul. 27, 2017 [1] | eggplant height Aug. 4, 2017 [1] | eggplant height Aug. 10, 2017 [1] | eggplant height Aug. 17, 2017 ([1]; untreated 138) | eggplant height Aug. 17, 2017 ([1]; untreated 138, listed as comparative example 10) [mm]
1 | CNC(=S)[S-].[Na+] [Comp. Example 3, sodium methyldithiocarbamate] | 0.5 ± 0.5 | 12 ± 3 | – | – | – | – | –
2 | CNC(=S)[S-].[Na+] [Sample 9, sodium methyldithiocarbamate] | – | – | 138bcdef mm | 150cdefg mm | 155cdefg mm | 160bcdef mm | –
3 | CNC(=S)[S-].[Na+] [Sample 10, sodium methyldithiocarbamate] | – | – | 150abc mm | 160bcde mm | 169abcde mm | 171acbd mm | 171
4 | CNC(=S)[S-].[Na+] [Sample 8, sodium methyldithiocarbamate] | – | – | 140abcde mm | 145 cdefg mm | 159 bcdef mm | 163bcde mm | –

Source: US11039618B2, “Metam salts and polysulfide soil treatment” (Tessenderlo Kerley, Inc, priority 2016, dated 2021)
